Patent US20250020658A1, “METHODS FOR SYNTHESIZING AND IDENTIFYING SYNTHETIC PROTEINS INCLUDING TARGETED THERAPEUTICS FOR NEURODEGENERATIVE DISORDERS BASED ON BIO-MIMICRY APPROACHES” (University of Denver, priority 2023, published 2025)
Entries after “also recorded” stand apart in the source; their conditions may differ. Read-outs that look alike come from different tables or passages of the source.

Assays:
[1] = mouse model; cited from earlier work
αS oligomers = αS oligomers (Homo sapiens, UniProt P37840); conditions: pathological high molecular weight αS oligomers vs αS monomers (native conformation), cited from earlier work
C. elegans PD models = assay: C. elegans Parkinson's disease models; type: in vivo; conditions: for rescue of PD phenotypes: multiple C. elegans PD models: degeneration of dopaminergic neurons, increase in reactive oxygen species, reduced motility
From the text: Using OPs as the basis, the 2D FAST approach was used to identify potent antagonists of α-Synuclein (αS) aggregation, a process central to Parkinson's disease (PD) as discussed above. […] (See, for example, “A 2D Fragment-Assisted Protein Mimetic Approach to Rescue α-Synuclein Aggregation Mediated Early and Post-Disease Parkinson's Phenotypes,” bioRxiv preprint posted 2022 Jul. 13, doi: https://doi.org/10.1101/2022.07.11.499659)

[2] = target: α-Synuclein (αS) aggregation (Homo sapiens, UniProt P37840); assay: Thioflavin T (ThT) dye-based aggregation assay against aggregation of αS; type: biochemical; conditions: lower ThT intensity = higher antagonist activity
From the text: The resulting dimers are again evaluated with a ThT assay (step (g)), and the best performing dimer is selected in a step (h). The process is repeated to screen for the best performing trimer (step (i)), and so on.
In particular, FIG. 21 is a graph comparing the relative ThT intensities of various molecules synthesized using the 2D FAST process, in accordance with embodiments. The lower the ThT intensity, the higher the antagonist activity of ligands against the target protein (synuclein aggregation in this example).

[3] = Parallel Artificial Membrane Permeability Assay (PAMPA); type: in vitro ADME; conditions: NS163 compared with NS132
From the text: FIG. 22 is a graph comparing the cell permeability of various ligands identified and synthesized using the 2D FAST approach and assessed using the Parallel Artificial Membrane Permeability Assay (PAMPA) technique. […] FIG. 25 is a graph comparing the relative ThT intensities of various molecules synthesized using the 2D FAST process in the presence of αS, in accordance with embodiments.

COC(=O)c1cc(OCC(=O)O)c2cccc(NC(=O)c3cc(OC(C)C)c4cccc(NC(=O)c5cc(OCC(=O)O)c6cccc(NC(=O)c7cc(OC(C)C)c8cccc([N+](=O)[O-])c8n7)c6n5)c4n3)c2n1 [SK-129]
crossing of the BBB [1]: efficiently crosses the BBB | toxicity [1]: without demonstrating any toxicity | affinity to αS oligomers relative to αS monomers (αS oligomers): 10 fold | affinity to αS oligomers relative to αS monomers (αS oligomers; listed as SK-α129): ten-fold higher affinity

Cc1ccc(NC(=O)c2ccc(NC(=O)c3ccc([N+](=O)[O-])c(NCCc4c[nH]c5ccccc45)n3)c(NCC3CCCCC3)n2)c(OCC(=O)O)n1 [NS132]
rescue of PD phenotypes (C. elegans PD models): very effective ligands in rescuing PD phenotypes | antagonist activity against αS aggregation [2]: most potent tripyridyl; also recorded: antagonist of the multiple facets of αS aggregation

Cc1ccc(NC(=O)c2ccc(NC(=O)c3ccc([N+](=O)[O-])c(NCCc4c[nH]c5ccccc45)n3)c(NCC3CCCCC3)n2)c(OCC(=O)NO)n1 [NS163]
activity within a C. elegans Parkinson's disease model (C. elegans PD models; NS163 as enhanced version of NS132): increased cell permeability and activity | rescue of PD phenotypes (C. elegans PD models): very effective ligands in rescuing PD phenotypes | cell permeability [3]: increased cell permeability; also recorded: better cell permeability | antagonist activity against αS aggregation [2]: potent antagonist of α-Synuclein aggregation; also recorded: without sacrificing activity

Cc1ccc(NC(=O)c2ccc([N+](=O)[O-])c(NCC3CCCCC3)n2)c(OCC(=O)O)n1 [NS55]
antagonist activity against αS aggregation [2]: potent inhibitor of α-Synuclein aggregation
